# Laboratory results reported in paper PMC8329197, “Compounds targeting OSBPL7 increase ABCA1-dependent cholesterol efflux preserving kidney function in two models of kidney disease” (Nature Communications, 2021).
# “And” between values parts separate entries of the source, which are not always exact repeats. Equal values may be shown once.
# Assays:
# [1] = tested on: ABCA1 protein; assay: Cell fractionation: ABCA1 in plasma membrane and microsomal fractions of podocytes; assay type: cell-based, human; settings: podocytes; Cpd A 5 µM, Cpd G 10 µM
# Protocol: Lysates, or cell fractions were incubated in Laemmli buffer at 55 °C for 10 min under reducing conditions. A total of 30 μg of protein from cell lysates or one-third of the volume collected in cell fraction preparations was separated by SDS-PAGE in 4–20% gradient gels (Biorad) and proteins were then transferred to PVDF membranes. After blocking with 5% TBS-milk, membranes were probed with primary antibodies overnight at 4 °C. The following primary antibodies were used: mouse anti-ABCA1 (Abcam; 1:1000), rabbit anti-GAPDH antibody (Millipore; 1:10,000), mouse anti-actin (CP01, Millipore 1:10,000), anti-MEK, anti-ERp72, anti-V5 and anti-Na^+/K^+ ATPase (Cell Signaling; all 1:1000), and rabbit anti-OSBPL7 (Sigma; 1:1000). After washing, membranes were incubated with anti-rabbit or and anti-mouse IgG-HRP antibodies (Promega, 1:10,000). Signals were detected after incubation with Westernbright ECL HRP substrate (Advansta) and luminescence signals were captured with Azure C600 Gel Imaging workstation (Azure Biosystems Inc, USA) or X-ray films.
# Differentiated podocytes were treated with compounds Cpd C (1 μM), Cpd A (5 μM), or Cpd G (10 μM) for 18 h, washed and then harvested in ice-cold PBS. Cells were centrifuged at 1000 × g for 5 min, the supernatant was carefully removed, and the pellet resuspended in hypotonic buffer (15 mM KCl, 1.5 mM MgCl2, 10 mM HEPES and 1 mM DTT) supplemented with a protease inhibitor cocktail (Roche). Cells were disrupted with a glass douncer, and sucrose was added to achieve final concentration of 227 mM. Cell lysates were centrifuged at 1000 × g for 30 min at 4 °C. The supernatant was then transferred to a new tube and centrifuged at 10,000 × g for 15 min at 4 °C. The pellet, containing the microsomal fraction was collected and the supernatant was transferred to a new tube and centrifuged at 100,000 × g for 1 h at 4 °C. The pelleted plasma membrane fraction was collected and the supernatant, containing the organelle-free cytosolic fraction, was concentrated in Vivaspin 500 filter columns. Western blot was performed using antibodies for ABCA1 and specific markers for each membrane fraction as described above. Na^+/K^+ ATPase was used to identify the plasma membrane fraction, ERp72 as a marker for the microsomal-enriched fraction, and MEK as the control for the non-membranous cytosolic fraction.
# [2] = tested on: Adriamycin (ADR)-induced nephropathy in Balb/c mice; assay: ADR nephropathy: liver total cholesterol, cholesterol esters, triglycerides; assay type: in vivo, mouse
# [3] = tested on: Adriamycin (ADR)-induced nephropathy in Balb/c mice; assay: ADR nephropathy: WBC, hemoglobin, hematocrit, ALT, AST; assay type: in vivo, mouse; settings: ADR-induced nephropathy
# [4] = tested on: Adriamycin (ADR)-induced nephropathy in Balb/c mice; assay: Adriamycin-induced nephropathy, main study: albumin/creatinine ratio and body weight
# [5] = tested on: Adriamycin (ADR)-induced nephropathy in Balb/c mice; assay: Adriamycin-induced nephropathy, dose-finding pilot study: ACR and body weight time course; settings: for ACR in pilot study: days 7-28; for Body Weight / ACR in spot urine: ADR, individual mice
# [6] = 28 days treatment, 25th quartile
# [7] = 28 days treatment, 75th quartile
# [8] = 28 days treatment, group maximum
# [9] = 28 days treatment, group median
# [10] = 28 days treatment, group minimum
# [11] = 28 days treatment, individual mouse values
# [12] = 30 mg/Kg/day, 7 days after inj, 30 mg/kg/day
# [13] = 30 mg/Kg/day, 14 days after inj, 30 mg/kg/day
# [14] = 100 mg/Kg/day, 7 days after inj, 100 mg/kg/day
# [15] = 100 mg/Kg/day, 14 days after inj, 100 mg/kg/day
# [16] = 100 mg/Kg/day, 21 days after inj, 100 mg/kg/day
# [17] = 100 mg/Kg/day, 28 days after inj, 100 mg/kg/day
smiles,measurement,setting,value
O=C(N[C@@H]1CCCC[C@H]1O)c1ccc(OCC(F)(F)F)c(-c2ccc(Cl)c(Cl)c2)n1 [Cpd A],ABCA1 at the plasma membrane,[1],increased ABCA1 at the plasma membrane
same,ABCA1 in microsomal fractions,[1],did not increase ABCA1 in microsomal fractions
same,LIVER CHOLESTEROL ESTERS,"[2]; ADR model, individual animals",1.39 nmol CE/ mg protein and 2.25 nmol CE/ mg protein and 2.79 nmol CE/ mg protein and 8 nmol CE/ mg protein and 3.82 nmol CE/ mg protein and 8.05 nmol CE/ mg protein
same,LIVER TOTAL CHOLESTEROL,"[2]; ADR model, individual animals",120 nmol Cholesterol/ mg protein and 119 nmol Cholesterol/ mg protein and 149 nmol Cholesterol/ mg protein and 163 nmol Cholesterol/ mg protein and 112 nmol Cholesterol/ mg protein and 195 nmol Cholesterol/ mg protein
same,LIVER TRIGLICERIDES,"[2]; ADR model, individual animals",75 nmol Triglycerides/ mg protein and 54.7 nmol Triglycerides/ mg protein and 58 nmol Triglycerides/ mg protein and 69 nmol Triglycerides/ mg protein and 38 nmol Triglycerides/ mg protein and 54.5 nmol Triglycerides/ mg protein
same,Hepatic triglyceride content vs. vehicle-treated controls,"[2]; ADR-challenged, 28 days",increased hepatic triglyceride content
same,"ALT, Median (IQR)",[3],256 (90.3-625) U/L
same,"ALT, Range",[3],88-766 U/L
same,"AST, Median (IQR)",[3],326 (213-500) U/L
same,"AST, Range",[3],200-685 U/L
same,"HTC, Median (IQR)",[3],54 (50-56) %
same,"HTC, Range",[3],47-62%
same,"Hgb, Median (IQR)",[3],13.6 g/dL
same,"Hgb, Range",[3],12.1 to 15.5 g/dL
same,"WBC, Range",[3],3.7-7.0 x103cells/µL
same,"ALT, QR(25)",[3]; [6],130.75 U/L
same,"AST, QR(25)",[3]; [6],232.75 U/L
same,"HTC, QR(25)",[3]; [6],51.25%
same,"Hgb, QR(25)",[3]; [6],13.1 g/dL
same,"WBC, QR(25)",[3]; [6],3.925 x 10^3 cells/ul
same,"ALT, QR(75)",[3]; [7],499.25 U/L
same,"AST, QR(75)",[3]; [7],421.5 U/L
same,"HTC, QR(75)",[3]; [7],55.5%
same,"Hgb, QR(75)",[3]; [7],13.9 g/dL
same,"WBC, QR(75)",[3]; [7],7.375 x 10^3 cells/ul
same,"ALT, Max",[3]; [8],766 U/L
same,"AST, Max",[3]; [8],685 U/L
same,"HTC, Max",[3]; [8],62%
same,"Hgb, Max",[3]; [8],15.5 g/dL
same,"WBC, Max",[3]; [8],8.2 x 10^3 cells/ul
same,"ALT, Median",[3]; [9],256.5 U/L
same,"AST, Median",[3]; [9],326 U/L
same,"HTC, Median",[3]; [9],54%
same,"Hgb, Median",[3]; [9],13.6 g/dL
same,"WBC, Median",[3]; [9],5.5 x 10^3 cells/ul
same,"ALT, Min",[3]; [10],88 U/L
same,"AST, Min",[3]; [10],200 U/L
same,"HTC, Min",[3]; [10],47%
same,"Hgb, Min",[3]; [10],12.1 g/dL
same,"WBC, Min",[3]; [10],3.7 x 10^3 cells/ul
same,Alanine Aminotransferase (ALT),[3]; [11],766 U/dL and 263 U/dL and 250 U/dL and 88 U/dL and 91 U/dL and 578 U/dL
same,Aspartate Aminotransferase (AST),[3]; [11],685 U/dL and 372 U/dL and 280 U/dL and 200 U/dL and 217 U/dL and 438 U/dL
same,Hematocrit HTC,[3]; [11],58% and 54% and 62% and 47% and 56% and 52% and 48% and 51%
same,White Blood Cells WBC,[3]; [11],7.7 x 10^3 cells/ul and 8.2 x 10^3 cells/ul and 4.7 x 10^3 cells/ul and 3.8 x 10^3 cells/ul and 4.3 x 10^3 cells/ul and 3.7 x 10^3 cells/ul and 7 x 10^3 cells/ul and 6.3 x 10^3 cells/ul and 7.5 x 10^3 cells/ul
same,Effect on weight loss,[4]; 28 days after ADR,substantially reduced weight loss
same,"ACR, median","[4]; 28 days after ADR, Cpd A 30, Cpd G 100, Cpd C 10 mg/Kg, group median",2.3 mg albumin/mg creatinine and 2.363 mg albumin/mg creatinine
same,Weight (d28),"[4]; animal weight when therapy finished, single animals",19 and 21 and 18 and 15 and 20
same,"Weight Change (as % of weight at day 0), Median","[4]; day 28 after ADR, Cpd A 30, Cpd G 100, Cpd C 10 mg/Kg",0%
same,Weight Change (as % of weight at day 0),"[4]; day 28 after ADR, Cpd A 30, Cpd G 100, Cpd C 10 mg/Kg, single animals",0% and -5.3% and -4.5% and -6.3% and -25% and 5.6%
same,ACR values (mg Albumin / mg Creatinine),"[4]; spot urine 28 days after ADR, oral daily Cpd A 30, Cpd G 100, Cpd C 10 mg/Kg, single animals",0.242 mg Albumin / mg Creatinine and 6.27 mg Albumin / mg Creatinine and 20.39 mg Albumin / mg Creatinine and 14.37 mg Albumin / mg Creatinine and 0.707 mg Albumin / mg Creatinine and 11.834 mg Albumin / mg Creatinine and 0.631 mg Albumin / mg Creatinine and 2.363 mg Albumin / mg Creatinine and 0.33 mg Albumin / mg Creatinine and 3.08 mg Albumin / mg Creatinine and 0.093 mg Albumin / mg Creatinine
same,Times lower ACR,"[4]; vs ADR+V, 28 days, Cpd A 30, Cpd G 100 mg/kg/day",8 times
same,ACR in pilot study,[5]; 30 mg/kg/day oral,significantly improved
same,ACR in pilot study,[5]; 100 mg/kg/day oral,significantly improved
same,Body Weight,"[5]; 30 mg/Kg/day, 0 days after inj, 30 mg/kg/day",19 grams (3×) and 18 grams and 20 grams
same,ACR in spot urine,[5]; [12],0.046 mg Albumin/ mg Creatinine in urine and 0.018 mg Albumin/ mg Creatinine in urine and 0.038 mg Albumin/ mg Creatinine in urine and 0.025 mg Albumin/ mg Creatinine in urine and 0.07 mg Albumin/ mg Creatinine in urine
same,Body Weight,[5]; [12],18 grams and 17 grams (3×) and 19 grams
same,ACR in spot urine,[5]; [13],18.583 mg Albumin/ mg Creatinine in urine and 0.363 mg Albumin/ mg Creatinine in urine and 64.328 mg Albumin/ mg Creatinine in urine and 0.368 mg Albumin/ mg Creatinine in urine and 1.926 mg Albumin/ mg Creatinine in urine
same,Body Weight,[5]; [13],18 grams (3×) and 17 grams (2×)
same,Body Weight,"[5]; 30 mg/Kg/day, 21 days after inj",18 grams
same,ACR in spot urine,"[5]; 30 mg/Kg/day, 21 days after inj, 30 mg/kg/day",1.551 mg Albumin/ mg Creatinine in urine and 71.309 mg Albumin/ mg Creatinine in urine and 0.609 mg Albumin/ mg Creatinine in urine and 0.814 mg Albumin/ mg Creatinine in urine
same,Body Weight,"[5]; 30 mg/Kg/day, 28 days after inj",19 grams
same,ACR in spot urine,"[5]; 30 mg/Kg/day, 28 days after inj, 30 mg/kg/day",2.363 mg Albumin/ mg Creatinine in urine and 0.33 mg Albumin/ mg Creatinine in urine and 3.08 mg Albumin/ mg Creatinine in urine and 0.093 mg Albumin/ mg Creatinine in urine and 0.242 mg Albumin/ mg Creatinine in urine
same,Body Weight,"[5]; 100 mg/Kg/day, 0 days after inj, 100 mg/kg/day",20 grams (2×) and 18 grams and 19 grams (2×)
same,ACR in spot urine,[5]; [14],0.022 mg Albumin/ mg Creatinine in urine and 0.015 mg Albumin/ mg Creatinine in urine and 0.072 mg Albumin/ mg Creatinine in urine and 0.065 mg Albumin/ mg Creatinine in urine
same,Body Weight,[5]; [14],18 grams and 17 grams (4×)
same,ACR in spot urine,[5]; [15],5.851 mg Albumin/ mg Creatinine in urine and 174.428 mg Albumin/ mg Creatinine in urine and 9.218 mg Albumin/ mg Creatinine in urine and 96.72 mg Albumin/ mg Creatinine in urine
same,Body Weight,[5]; [15],17 grams (3×) and 18 grams and 19 grams
same,ACR in spot urine,[5]; [16],3.536 mg Albumin/ mg Creatinine in urine and 136.245 mg Albumin/ mg Creatinine in urine and 73.737 mg Albumin/ mg Creatinine in urine and 208.282 mg Albumin/ mg Creatinine in urine
same,Body Weight,[5]; [16],15 grams and 18 grams (3×)
same,ACR in spot urine,[5]; [17],0.638 mg Albumin/ mg Creatinine in urine and 26.929 mg Albumin/ mg Creatinine in urine and 1.99 mg Albumin/ mg Creatinine in urine and 18.858 mg Albumin/ mg Creatinine in urine
same,Body Weight,[5]; [17],15 grams and 19 grams and 18 grams and 14 grams
